Values after ≈ are worked out from the molar mass of the structure shown. Values joined by “and” are separate entries in the source; they are usually repeats but may differ in a detail not shown here. Equal entries are not always repeated.
Tests used:
Trypanosoma cruzi = assay: DNDI: Inhibition of Chagas Disease parasite Trypanosoma cruzi (Tulahuen LacZ, Clone C4), in vitro.; type: functional, organism-based
[1] = (§1) DNDI: Cytotoxicity against L929 mouse fibroblasts, CYTO-SP, 24 hour; type: toxicity, cell-based; conditions: mouse, L929 mouse fibroblasts
[2] = DNDI: Cytotoxicity against L-6 rat myoblasts from skeletal muscle cells; type: toxicity, cell-based, L6; conditions: L-6 rat skeletal muscle myoblasts
[3] = (§2) DNDI: Cytotoxicity against L929 mouse fibroblasts, 72 hour.; type: toxicity, cell-based; conditions: mouse, L929 mouse fibroblasts
Trypanosoma brucei [4] = assay: DNDI: Inhibition of Human African Trypanosomiasis, Cross 22, in vitro; type: functional, organism-based
Trypanosoma brucei [5] = assay: DNDI: Inhibition of Human African Trypanosomiasis, SBRI 427, in vitro; type: functional, organism-based
[6] = system: Trypanosoma brucei rhodesiense; assay: DNDI: Inhibition of Human African Trypanosomiasis (HAT), STIB 900, in vitro; type: functional, organism-based
Trypanosoma brucei [7] = assay: (§3) DNDI: Mean survival time in days (MSD) of mice after intraperitoneal injection of Human African Trypanosomiasis (HAT), EATRO 110, in vivo at 20 mg/kg/day for 4 days.; type: functional, Mus musculus
Trypanosoma brucei [8] = assay: DNDI: Mean survival time in days (MSD) of mice after intraperitoneal injection of Human African Trypanosomiasis (HAT), EATRO 110, in vivo at 5 mg/kg/day for 4 days.; type: functional, Mus musculus
Leishmania donovani = assay: DNDI: Inhibition of formation of Leishmania donovani (strain MHOM/ET/67/L82) axenic amastigotes, in vitro.; type: functional, organism-based
[9] = DNDI: Lipophilicity measured in Chromatographic hydrophobicity index (CHI) assay, pH 7.4; type: physicochemical; conditions: buffer
Plasmodium falciparum = assay: DNDI: Inhibition of the malaria parasite Plasmodium falciparum, in vitro; type: functional, organism-based; conditions: K1
[10] = DNDI: Solubility in phosphate buffered saline at pH7.4 measured by nephelometry at room temperature (NEPH-RT); type: physicochemical; conditions: pH 7.4
in vitro [11] = conditions: human, t (1 / 2)
Description: DNDI: half life in human liver microsomes at a concentration of 1uM

in vitro [12] = conditions: human, CLint in vitro
Description: DNDI: in vitro intrinsic clearance in human liver microsomes at a concentration of 1uM

Trypanosoma brucei [13] = assay: DNDI: Inhibition of Human African Trypanosomiasis, EATRO 110, in vitro; type: functional, organism-based
[14] = DNDI: half life in human liver microsomes at a concentration of 10uM; type: ADME, Microsome
[15] = DNDI: in vitro intrinsic clearance in human liver microsomes at a concentration of 10uM; type: ADME, Microsome
[16] = DNDI: in vitro intrinsic clearance in mouse liver microsomes at a concentration of 10uM; type: ADME, Microsome; conditions: read-out: CLint in vitro
[17] = DNDI: half life in mouse liver microsomes at a concentration of 10uM; type: ADME, Microsome
MDR1 (ABCB1) [18] = molecular target: T1, MDR1 (ABCB1) (Homo sapiens, UniProt P08183); assay: DNDI: % of compound recovered from apical to basolateral permeability assay in MDCK cells transfected with human MDR1; type: ADME, cell-based, Canis lupus familiaris; conditions: dog
MDR1 (ABCB1) [19] = molecular target: T1, MDR1 (ABCB1); assay: DNDI: Apparent permeability from apical to basolateral side of the MDCK cell transfected with human MDR1; type: ADME, cell-based, Canis lupus familiaris; conditions: dog
MDR1 (ABCB1) [20] = molecular target: T1, MDR1 (ABCB1); assay: DNDI: Apparent permeability from basolateral to apical side of the MDCK cell transfected with human MDR1 after 60 mins at a concentration of 3uM; type: ADME, cell-based, Canis lupus familiaris; conditions: dog
MDR1 (ABCB1) [21] = molecular target: T1, MDR1 (ABCB1); assay: DNDI: % of compound recovered from basolateral to apical permeability assay in MDCK cells transfected with human MDR1; type: ADME, cell-based, Canis lupus familiaris; conditions: dog
MDR1 (ABCB1) [22] = molecular target: T1, MDR1 (ABCB1); assay: DNDI: Efflux ratio for permeability from basolateral to apical side to apical to basolateral side of MDCK cells transfected with human MDR1; type: ADME, cell-based, Canis lupus familiaris; conditions: dog
[23] = DNDI: Solubility in phosphate buffered saline at pH7.4 measured by optical density (turbidimetry) at room temperature (OD-RT); type: physicochemical; conditions: pH 7.4
[24] = mouse, microsomes, 1 µM
Description: (§4) DNDI: in vitro intrinsic clearance in mouse liver microsomes at a concentration of 1uM

in vitro [25] = conditions: mouse, t (1 / 2)
Description: (§5) DNDI: half life in mouse liver microsomes at a concentration of 1uM

[26] = DNDI: half-life in mouse S9 microsomes at a concentration of 1uM; type: ADME, subcellular, Liver, S9 fraction
MDR1 (ABCB1) [27] = molecular target: T1, MDR1 (ABCB1); assay: DNDI: % of compound recovered from apical to basolateral permeability assay in MDCK cells transfected with human MDR1 after 60 mins at a concentration of 3uM; type: ADME, cell-based, Canis lupus familiaris; conditions: dog
MDR1 (ABCB1) [28] = molecular target: T1, MDR1 (ABCB1); assay: DNDI: Apparent permeability from apical to basolateral side of the MDCK cell transfected with human MDR1after 60 mins at a concentration of 3uM; type: ADME, cell-based, Canis lupus familiaris; conditions: dog, MDCK-MDR1
MDR1 (ABCB1) [29] = molecular target: T1, MDR1 (ABCB1); assay: DNDI: % of compound recovered from apical to basolateral permeability assay in MDCK cells transfected with human MDR1 after 60 mins at a concentration of 3uM in the presence of GF120918; type: ADME, cell-based, Canis lupus familiaris; conditions: dog, MDCK-MDR1, with GF120918 (concentration not stated)
[30] = DNDI: half-life in mouse S9 microsomes at a concentration of 10uM; type: ADME, subcellular, Liver, S9 fraction
L929 [31] = assay: as §2; type: toxicity, cell-based; conditions: l929
L929 [32] = assay: as §1; type: toxicity, cell-based; conditions: l929
Trypanosoma brucei [33] = assay: as §3; type: functional, Mus musculus; remark: listed apart in the source
[34] = mouse, microsomes, 1 µM; remark: listed apart in the source
Description: as §5

in vitro [35] = conditions: mouse, liver microsomes
Description: as §4

[36] = Trypanosoma brucei, SBRI 427, read-out: IC50
[37] = MDCK-MDR1, read-out: Calculated Ratio

T1 sequence (P08183 whole entry): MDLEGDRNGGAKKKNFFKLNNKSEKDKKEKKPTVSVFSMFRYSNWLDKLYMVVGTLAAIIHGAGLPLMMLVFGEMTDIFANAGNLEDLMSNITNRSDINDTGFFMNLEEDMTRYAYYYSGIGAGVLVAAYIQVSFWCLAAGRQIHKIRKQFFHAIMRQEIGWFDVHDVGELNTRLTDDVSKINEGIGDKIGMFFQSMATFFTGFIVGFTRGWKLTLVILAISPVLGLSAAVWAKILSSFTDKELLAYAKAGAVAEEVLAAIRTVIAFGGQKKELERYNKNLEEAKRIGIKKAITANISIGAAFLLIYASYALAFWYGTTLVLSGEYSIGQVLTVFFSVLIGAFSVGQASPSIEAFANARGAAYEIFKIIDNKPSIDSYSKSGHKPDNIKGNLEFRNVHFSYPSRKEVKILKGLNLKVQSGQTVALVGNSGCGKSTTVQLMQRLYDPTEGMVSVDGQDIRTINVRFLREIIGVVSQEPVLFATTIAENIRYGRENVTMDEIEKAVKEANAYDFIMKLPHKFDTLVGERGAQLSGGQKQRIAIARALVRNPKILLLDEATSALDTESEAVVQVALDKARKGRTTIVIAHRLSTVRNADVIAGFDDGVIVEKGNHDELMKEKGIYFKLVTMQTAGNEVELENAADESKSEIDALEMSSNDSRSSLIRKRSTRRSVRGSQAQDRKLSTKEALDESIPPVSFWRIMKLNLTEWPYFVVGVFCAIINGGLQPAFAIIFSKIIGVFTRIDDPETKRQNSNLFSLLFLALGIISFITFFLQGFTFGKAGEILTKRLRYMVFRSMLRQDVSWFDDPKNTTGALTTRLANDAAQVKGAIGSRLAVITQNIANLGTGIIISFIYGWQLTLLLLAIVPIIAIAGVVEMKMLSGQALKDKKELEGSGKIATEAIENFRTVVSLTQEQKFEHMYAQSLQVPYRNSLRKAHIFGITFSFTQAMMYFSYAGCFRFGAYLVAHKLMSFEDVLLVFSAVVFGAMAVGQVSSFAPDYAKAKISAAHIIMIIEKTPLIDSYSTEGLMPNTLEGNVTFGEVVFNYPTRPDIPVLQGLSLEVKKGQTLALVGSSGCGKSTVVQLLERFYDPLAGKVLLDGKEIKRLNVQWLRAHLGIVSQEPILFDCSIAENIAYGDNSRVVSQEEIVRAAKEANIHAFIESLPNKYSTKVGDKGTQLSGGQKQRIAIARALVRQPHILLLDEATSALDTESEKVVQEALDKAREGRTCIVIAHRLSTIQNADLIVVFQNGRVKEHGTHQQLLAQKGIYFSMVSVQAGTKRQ

Compound | IC50 (Trypanosoma brucei [5]; [36]) [µg/mL] | chromatographic logD [9] | half-life at 1 µM [26] [h] | IC50 (Trypanosoma cruzi) [µg/mL] | IC50 at 24 h [1] [µg/mL] | IC50 [2] [µg/mL] | IC50 at 72 h [3] [µg/mL] | IC50 (Trypanosoma brucei [4]) [µg/mL] | IC50 [6] [µg/mL] | MSD (Trypanosoma brucei [7]) [days] | MSD (Trypanosoma brucei [8]) [days] | IC50 (Leishmania donovani) [µg/mL] | IC50 (Plasmodium falciparum) [µg/mL] | solubility kinetic [10] [µM] | CLint in vitro [24] [µL/min/mg] | other results
CCCCc1ccc(-c2nc(CNC3CCCCCC3)co2)cc1 | 0.36 (≈ 1.1 µM) | 5.49 |  | 1.43 (≈ 4.38 µM) | > 50 | 2.85 (≈ 8.73 µM) | 1.23 (≈ 3.77 µM) | 0.4 (≈ 1.23 µM) | 0.383 (≈ 1.17 µM) | 3.5 | 4 | 10.1 (≈ 30.8 µM) | 0.739 (≈ 2.26 µM) | 13 (≈ 4.24 µg/mL) |  | IC50 (Trypanosoma brucei [5]): 0.18 µg/mL and 0.33 µg/mL; half-life at 1 µM (in vitro [11]; microsomes): 0.8 h; microsomal CLint at 1 µM (in vitro [12]; microsomes): 18 µL/min/mg
Fc1ccc(-c2cc3nc(-c4ccccc4)cc(NC4CCNC4)n3n2)cc1 (stereo unspecified) | 0.583 (≈ 1.56 µM) |  | 1.39 |  |  |  | 1.39 (≈ 3.72 µM) |  |  |  |  |  |  |  |  | half-life at 10 µM [30]: 2.82 h
O/N=C(\NCC1CC1)c1ccccc1-c1ccccc1 | 1.15 (≈ 4.32 µM) | 4.04 |  | > 30 | > 50 | 72.3 (≈ 271 µM) | > 10 |  | 8.1 (≈ 30.4 µM) | 1 | 4 | 32.3 (≈ 121 µM) | 3.14 (≈ 11.8 µM) | > 200 | 93 | logD [9]: 3.96; half-life at 10 µM [14]: 10.6 h; CLint in vitro [15]: 5 µL/min/mg; microsomal CLint at 10 µM [16]: 117 µL/min/mg; half-life at 10 µM [17]: 0.417 h; solubility kinetic [23]: > 200 µM; half-life at 1 µM (in vitro [25]; microsomes): 0.15 h
CCCCCC(C)NCc1coc(-c2ccccc2OCC)n1 (stereo unspecified) |  |  |  |  | 27 (≈ 85.3 µM) |  | 7.79 (≈ 24.6 µM) |  |  |  |  |  |  |  |  | IC50 (L929 [32]): 38.6 µg/mL (≈ 122 µM)
Fc1ccc(-c2cc3nc(-c4ccccc4)cc(NC4CCNCC4)n3n2)cc1 | 0.555 (≈ 1.43 µM) | 4.2 | > 5.83 |  |  |  | 1.11 (≈ 2.86 µM) |  |  |  |  |  |  | 13 (≈ 5.04 µg/mL) |  | half-life at 10 µM [30]: > 5.83 h
CCCCc1ccc(-c2nc(CNC3CC(C)CC(C)(C)C3)co2)cc1 (stereo unspecified) |  | 5.99 |  | 2 (≈ 5.64 µM) | > 50 | 1.73 (≈ 4.88 µM) | 0.64 (≈ 1.81 µM) | 0.34 (≈ 0.959 µM) | 0.348 (≈ 0.982 µM) | 2.5 | 4 | 5.26 (≈ 14.8 µM) | 0.521 (≈ 1.47 µM) | 6 (≈ 2.13 µg/mL) | 3 | IC50 (L929 [31]): 1.26 µg/mL (≈ 3.55 µM); MSD (Trypanosoma brucei [33]): 4 days; t (1 / 2) [34]: 251 min and 224 min; half-life at 1 µM (in vitro [11]; liver microsomes): 0.983 h; microsomal CLint at 1 µM (in vitro [12]; liver microsomes): 14 µL/min/mg; microsomal CLint at 1 µM (in vitro [35]): 4 µL/min/mg; half-life at 1 µM (in vitro [25]; liver microsomes): 3.2 h

Further lines, with some results ahead:

IC50 (Trypanosoma brucei [5]; [36]) [µg/mL] | chromatographic logD [9] | half-life at 1 µM [26] [h] | Compound | IC50 (Trypanosoma cruzi) [µg/mL] | IC50 at 24 h [1] [µg/mL] | IC50 [2] [µg/mL] | IC50 at 72 h [3] [µg/mL] | IC50 (Trypanosoma brucei [4]) [µg/mL] | IC50 [6] [µg/mL] | MSD (Trypanosoma brucei [7]) [days] | MSD (Trypanosoma brucei [8]) [days] | IC50 (Leishmania donovani) [µg/mL] | IC50 (Plasmodium falciparum) [µg/mL] | solubility kinetic [10] [µM] | CLint in vitro [24] [µL/min/mg] | other results
 | 4.95 |  | CCCCCC(C)NCc1coc(-c2ccc(OCC)cc2)n1 (stereo unspecified) | 7.7 (≈ 24.3 µM) | > 50 | 8.28 (≈ 26.2 µM) | 5.27 (≈ 16.7 µM) | 0.67 (≈ 2.12 µM) | 0.342 (≈ 1.08 µM) |  |  | 12.3 (≈ 38.8 µM) | 1.38 (≈ 4.36 µM) |  | 36 | IC50 (Trypanosoma brucei [13]): 0.8 µg/mL (≈ 2.53 µM); half-life at 10 µM [14]: 1.47 h; CLint in vitro [15]: 33 µL/min/mg; microsomal CLint at 10 µM [16]: 3 µL/min/mg; half-life at 10 µM [17]: 14.7 h; recovery (MDR1 (ABCB1) [18]): 33%; Papp A→B (MDR1 (ABCB1) [19]): 20.9 ×10⁻⁶ cm/s; Papp B→A at 1 h, 3 µM (MDR1 (ABCB1) [20]): 22 ×10⁻⁶ cm/s; recovery (MDR1 (ABCB1) [21]): 56%; efflux ratio (MDR1 (ABCB1) [22]; read-out: B-A/A-B): 1; solubility kinetic [23]: 32 µM (≈ 10.1 µg/mL); half-life at 1 µM (in vitro [25]; liver microsomes): 0.383 h
5 (≈ 11.6 µM) | > 5.2 | 4.27 | Fc1cccc(-c2cc3nc(-c4ccccc4)cc(NCCCN4CCOCC4)n3n2)c1 |  |  |  | > 10 |  |  |  |  |  |  | 3 (≈ 1.29 µg/mL) |  | recovery at 1 h, 3 µM (MDR1 (ABCB1) [27]): 59%; Papp A→B at 1 h, 3 µM (MDR1 (ABCB1) [28]): 3.26 ×10⁻⁶ cm/s; recovery at 1 h, 3 µM (MDR1 (ABCB1) [29]): 51%; efflux ratio (MDR1 (ABCB1) [22]; [37]): 0.05
> 5 | 3.67 |  | Cc1cc(NCCCn2ccnc2)n2nc(-c3cccc(F)c3)cc2n1 |  |  |  | > 10 |  |  |  |  |  |  | 25 (≈ 8.76 µg/mL) |  | recovery at 1 h, 3 µM (MDR1 (ABCB1) [27]): 100%; Papp A→B at 1 h, 3 µM (MDR1 (ABCB1) [28]): 30.4 ×10⁻⁶ cm/s; recovery at 1 h, 3 µM (MDR1 (ABCB1) [29]): 109%; efflux ratio (MDR1 (ABCB1) [22]; [37]): 0.43
1.55 (≈ 4.51 µM) |  |  | CCCCc1ccc(-c2nc(CNCC(C)(C)CN(C)C)co2)cc1 |  |  |  | 4.92 (≈ 14.3 µM) |  |  |  |  |  |  |  |  | IC50 (L929 [31]): 2.73 µg/mL (≈ 7.95 µM)

From ChEMBL document CHEMBL1857833, “Screening and optimization of specific chemical series against human African Trypanosomiasis (HAT)”
